The results in this text go back to ChEMBL document CHEMBL1201862, “PubChem BioAssay data set” (2004).

The source made the active and inactive calls. For most assays here, no stated cut-off is given here; in the data, actives have a measured EC50 and inactives only a lower limit.

A short description of test [1]: C. albicans growth with fluconazole, confirmation, fluorescence, retest (AID 2467). The class given is functional, cell-based.
Test [2] concerns the target T1, Serine/threonine-protein phosphatase (Candida dubliniensis (strain CD36 / CBS 7987 / NCPF 3949 / NRRLY-17841) (Yeast), UniProt B9W6M3).
T1 sequence (B9W6M3 whole entry): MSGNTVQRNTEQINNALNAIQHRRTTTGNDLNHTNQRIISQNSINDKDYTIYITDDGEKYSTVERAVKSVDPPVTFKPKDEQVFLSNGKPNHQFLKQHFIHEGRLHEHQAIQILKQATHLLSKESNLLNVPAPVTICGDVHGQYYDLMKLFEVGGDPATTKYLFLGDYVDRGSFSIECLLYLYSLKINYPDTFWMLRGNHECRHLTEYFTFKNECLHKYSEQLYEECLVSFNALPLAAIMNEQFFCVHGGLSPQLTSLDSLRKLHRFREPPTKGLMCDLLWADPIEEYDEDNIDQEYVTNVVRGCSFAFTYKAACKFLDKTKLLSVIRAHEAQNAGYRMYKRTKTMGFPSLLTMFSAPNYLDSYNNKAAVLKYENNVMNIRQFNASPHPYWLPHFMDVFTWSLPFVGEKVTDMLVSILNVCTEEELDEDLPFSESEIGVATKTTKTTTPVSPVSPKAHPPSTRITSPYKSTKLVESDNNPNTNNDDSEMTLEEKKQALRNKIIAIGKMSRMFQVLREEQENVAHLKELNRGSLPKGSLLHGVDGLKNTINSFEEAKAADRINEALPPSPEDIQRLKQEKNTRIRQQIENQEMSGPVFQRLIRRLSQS
The experiment in a line: calcineurin pathway inhibitors in yeast reporter, dose response, S. cerevisiae, CDRE-lacZ, luminescence, secondary (AID 2388).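 Further: yeast reporter cells carrying a calcineurin-responsive lacZ construct stimulated with calcium chloride; luminescent beta-galactosidase reporter signal in whole cells rather than isolated phosphatase activity; potency for inhibition where a drop in reporter signal means calcineurin blockade.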 It is filed as functional, cell-based.

The nature of test [3]: Counterscreen for AddAB inhibitors: absorbance-based bacterial cell-based high throughput dose response assay for inhibitors of bacterial viability. [Related pubchem assays (depositor defined):AID435030, AID449728, AID449731, AID488942, AID488955, AID488956]. It is filed as functional. On the technique in general: The purpose of a counterscreen is to sort out artefacts and off-target activity.

Test [4] is described as follows: NIH-3T3 fibroblast cytotoxicity, dose response, cytotoxicity control, cell-based, fluorescence, Alamar Blue, secondary assay (AID 2327).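 Further: NIH-3T3 mouse fibroblasts cultured with fluconazole at 8 µg/mL.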 The class given is functional.

Broadly, the EC50 is the midpoint of the concentration-response curve. For orientation: IC50 means the concentration needed to halve the response being measured. With `CCCCC(=O)NC(c1ccco1)c1cc(Cl)c2cccnc2c1O` (configuration not stated), the results for the concentration for a half-maximal effect (EC50) in test [1], in test [2] and in test [4] were 0.537 µM (active), > 180 µM (inactive) and 25 µM (active), respectively. For the same molecule, the IC50 in test [3] was > 119 µM (inactive).
In the same order, the values of `CCCCC(=O)NC(c1ccc(Cl)cc1)c1ccc2cccnc2c1O` (configuration not stated) are 0.413 µM (active), 24.8 µM (active), 16.6 µM (active) and > 119 µM (inactive).
`O=C(N/N=C/c1ccccc1O)/C(O)=C\C1=NC2(CCCC2)Cc2ccccc21`: the EC50 was 0.663 µM (active) in test [1], > 180 µM (inactive) in test [2] and 10.5 µM (active) in test [4]. The IC50 in test [3] was > 119 µM (inactive).
